Tests used:
Serum Testosterone = experiment: Efficacy of formulation in vivo: serum testosterone levels; settings: 5 mg/ml in 5% mannitol, 100 μl/kg s.c., adult male Beagle dogs
Experimental: Peptide 1 is dissolved in 5% mannitol (5 mg/ml). Three adult male Beagle dogs are treated with this solution (100 μl/kg) by subcutaneous injection. Serum Testosterone levels are measured for the following 42 days. When Testosterone levels started to incline again the experiment was terminated.

Serum LH = experiment: Efficacy of formulation in vivo: serum LH levels; settings: 25 mg/ml in 5% mannitol, 80 μl/kg s.c., ovariectomised Rhesus monkeys
Experimental: Peptide 1 is dissolved in 5% mannitol (25 mg/ml). Three ovariectomised Rhesus monkeys are treated with this solution (80 μl/kg) by subcutaneous injection. Serum LH levels is measured for the following 101 days.

[1] = Stability of aqueous solution: gel formation by visual examination; type: physicochemical; settings: room temperature
Experimental: Gel formation was determined by visual examination.

For “Ac-DNal-DCpa-DPal-Ser-Aph(L-Hor)-DAph(CONH2)-Leu-Lys(iPr)-Pro-DAla-NH2 [Peptide 1]”, the “Serum Testosterone, mean ± se” value (Serum Testosterone; Day 7) was less than 0.2 nmol/L, the “Serum Testosterone, mean ± se” value (Serum Testosterone; Day 14) was less than 0.2 nmol/L and the “Serum Testosterone, mean ± se” value (Serum Testosterone; Day 21) was less than 0.2 nmol/L. For the same substance, the “Serum Testosterone, mean ± se” value (Serum Testosterone; Day 28) was less than 0.2 nmol/L, the “Serum Testosterone, mean ± se” value (Serum Testosterone; Day 42) was 3.3 ± 3 nmol/L and the “Serum Testosterone, mean ± se” value (Serum Testosterone; Hour 4) was less than 0.2 nmol/L. For the same substance, the “Serum Testosterone, mean ± se” value (Serum Testosterone; Time 0) was 13.8 ± 5.7 nmol/L, the “Serum LH, mean ± se” value (Serum LH; Day 1) was 10.5 ± 1.5 ng/mL and the “Serum LH, mean ± se” value (Serum LH; Day 2) was 11.8 ± 2.6 ng/mL. For the same substance, the “Serum LH, mean ± se” value (Serum LH; Day 7) was 6.7 ± 1.2 ng/mL, the “Serum LH, mean ± se” value (Serum LH; Day 14) was 5.8 ± 0.9 ng/mL and the “Serum LH, mean ± se” value (Serum LH; Day 21) was 6.6 ± 1.0 ng/mL. For the same substance, the “Serum LH, mean ± se” value (Serum LH; Day 28) was 9.4 ± 1.3 ng/mL, the “Serum LH, mean ± se” value (Serum LH; Day 35) was 8.8 ± 1.0 ng/mL and the “Serum LH, mean ± se” value (Serum LH; Day 42) was 11.8 ± 2.3 ng/mL. For the same substance, the “Serum LH, mean ± se” value (Serum LH; Day 72) was 29.5 ± 4.3 ng/mL, the “Serum LH, mean ± se” value (Serum LH; Day 101) was 48.9 ± 8.3 ng/mL and the “Serum LH, mean ± se” value (Serum LH; Hour 6) was 16.2 ± 1.9 ng/mL. For the same substance, the “Serum LH, mean ± se” value (Serum LH; Time 0) was 60.1 ± 7.5 ng/mL, the “Stability (time to gel formation)” value ([1]; 0.25 mg/ml (calculated as free base) in water) was “No gel formation after 6 months” and the “Stability (time to gel formation)” value ([1]; 1.0 mg/ml (calculated as free base) in water) was “No gel formation after 6 months”. The “Stability (time to gel formation)” value ([1]; 5.0 mg/ml (calculated as free base) in water) was “Gel formation after 4 weeks”, the “Stability (time to gel formation)” value ([1]; 10.0 mg/ml (calculated as free base) in water) was “Gel formation after 2 weeks” and the “Stability (time to gel formation)” value ([1]; 30.0 mg/ml (calculated as free base) in water) was “Gel formation after 48 hours”. The “Stability (time to gel formation)” value ([1]; 40.0 mg/ml (calculated as free base) in water) was “Gel formation after 24 hours”, the “Stability (time to gel formation)” value ([1]; 60.0 mg/ml (calculated as free base) in water) was “Gel formation after 8 hours” and the “Stability (time to gel formation)” value ([1]; 80.0 mg/ml (calculated as free base) in water) was “Rapid gel formation within 60 minutes”. For the same substance, the “Stability (time to gel formation)” value ([1]; 120.0 mg/ml (calculated as free base) in water) was “Rapid gel formation within 30 minutes”.

Source: patent US20040038903A1, “Gonadotropin releasing hormone antagonists in gel-forming concentration” (priority 2001, published 2004)
